The text below walks through data of patent US4996207A, “Three new non-polyglutamatable deazaaminopterins” (priority 1990, dated 1991).

Several values for one entry are separate records, joined by “and”; a condition that tells them apart may be missing. Equal values may be shown once. Entries after “also recorded” stand apart in the source; their conditions may differ. Read-outs that look alike come from different tables or passages of the source.

The conditions of data set [1]: result in words, cited from earlier work.
Data set [2] has as its target T1, folylpolyglutamate synthetase (FPGS) (Homo sapiens, UniProt Q05932).
T1 construct: purified human leukemia cell folylpolyglutamate synthetase (FPGS); endogenous in cells; host or cells: CCRF-CEM human leukemia cells
T1 sequence (Q05932 43-587): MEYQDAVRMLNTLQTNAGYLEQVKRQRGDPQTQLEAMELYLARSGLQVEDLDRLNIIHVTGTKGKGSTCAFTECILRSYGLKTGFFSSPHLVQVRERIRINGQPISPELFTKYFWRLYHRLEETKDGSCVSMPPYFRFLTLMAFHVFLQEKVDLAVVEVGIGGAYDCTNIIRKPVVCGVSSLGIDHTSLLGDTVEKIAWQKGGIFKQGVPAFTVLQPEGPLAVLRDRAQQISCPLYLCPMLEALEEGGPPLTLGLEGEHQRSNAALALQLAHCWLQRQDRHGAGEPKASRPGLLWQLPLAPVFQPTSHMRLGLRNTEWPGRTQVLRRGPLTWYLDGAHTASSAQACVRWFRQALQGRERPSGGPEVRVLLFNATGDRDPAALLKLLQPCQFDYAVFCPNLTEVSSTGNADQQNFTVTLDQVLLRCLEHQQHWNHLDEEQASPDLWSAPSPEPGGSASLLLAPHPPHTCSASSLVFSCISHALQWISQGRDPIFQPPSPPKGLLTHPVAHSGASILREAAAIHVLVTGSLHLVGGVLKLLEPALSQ
In words: Substrate activity towards CCRF-CEM human leukemia cell folylpolyglutamate synthetase (FPGS). It counts as biochemical. Conditions: for Substrate activity: Conc 50 μM, CCRF-CEM human leukemia cell FPGS; for substrate for folylpolyglutamate synthetase: result in words. The protocol:
Compounds 1, 2 and 3 were evaluated as substrates of purified human leukemia cell folylpolyglutamate synthetase (FPGS).
The assays were performed as described by McGuire, Graber, Licato, Vincenz, Coward, Nimec and Galivan in Cancer Research 49:4517 (1989).

The conditions of data set [3]: cited from earlier work.
For data set [4], the system named is H35 hepatoma cells (folinic acid transport). The data set is described as follows: Inhibition of folinic acid transport to H35 hepatoma cells. Format: cell-based. The settings on record: for IC50: 0.25 h, Folinic acid 2 μM, 15 min uptake, read-out: I50, inhibition of folinic acid transport to H35 hepatoma cells; for transport to H35 hepatoma cells compared to methotrexate: ability to compete with folinic acid transport; for transport to tumor cells compared to methotrexate: fold versus methotrexate.

In data set [5] the test system is H35 hepatoma cells. The data set is described as follows: Inhibition of tumor cell growth, H35 hepatoma. It counts as cell-based. The settings on record: read-out: I50, inhibition of tumor cell growth, H35 hepatoma.
For data set [6], the target named is T2, human dihydrofolate reductase (Homo sapiens, UniProt P00374).
T2 construct: Pure human dihydrofolate reductase from lymphoblastoid cells were used; endogenous in cells
T2 sequence (P00374 1-187): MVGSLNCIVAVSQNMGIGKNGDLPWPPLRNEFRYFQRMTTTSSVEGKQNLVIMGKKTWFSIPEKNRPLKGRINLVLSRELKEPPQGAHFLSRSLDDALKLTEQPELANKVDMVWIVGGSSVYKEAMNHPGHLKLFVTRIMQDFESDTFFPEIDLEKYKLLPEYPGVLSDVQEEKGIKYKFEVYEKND
The data set is described as follows: Inhibition of dihydrofolate reductase. Conditions: pure human enzyme from lymphoblastoid cells. Format: biochemical. The procedure:
Pure human dihydrofolate reductase from lymphoblastoid cells were used. The enzymatic assay was performed as described by Pastore, Plante and Kisliuk in Methods in Enzymology 34:281 (1974).

Data set [7] deals with Human manca lymphoid leukemia. The data set is described as follows: Inhibition of tumor cell growth, Human manca lymphoid leukemia. Format: cell-based. Conditions: read-out: I50, inhibition of tumor cell growth, Human manca lymphoid leukemia.
Data set [8] has as its system CCRF-CEM human leukemia cells. In words: Inhibition of tumor cell growth, CCRF-CEM human leukemia. It counts as cell-based.
The subject of data set [9] is three tumor models. In words: Antitumor activity in three tumor models (Table I). The settings on record: result in words. Format: cell-based. The protocol:
Manca cell growth assay was performed as described by Thorndike, Gaumont, Kisliuk, Sirotnak, Murthy and Nair in Cancer Research 49:158 (1989). Growth inhibition of H35hepatoma cells was measured as described by Patil, Jones, Nair, Galivan, Maley, Kisliuk, Gaumont, Duch and Ferone in the Journal of Medicinal Chemistry 32:1284 (1989) and that of CCRF-CEM human leukemia cells according to the procedures of McGuire, Graber, Licato, Vincenz, Coward, Nimec and Galivan (Cancer Research 49:4517, 1989).

The format of data set [10] is physicochemical. The text has this:
In stage II the mixed anhydride 6 or 7 is reacted with an excess amount of a diester of .tau.-methyleneglutamic acid such as diethyl-.tau.-methyleneglutamic acid. Dimethyl, dibenzyl or di-t-butyl-.tau.-methylene glutamic acid may be substituted for the diethyl derivative. Diethyl-.tau.-methylene glutamate may be added as the hydrochloride form to the mixed anhydride solutions 6 or 7, followed by the addition of an equal amount or an excess of an acid acceptor such as triethylamine. Alternatively, diethyl-.tau.-methyleneglutamate hydrochloride may be dissolved in a suitable solvent such as DMF, neutralized with an equivalent amount of the acid acceptor, and then added to the mixed anhydride solution. This reaction mixture is stirred for 18 hours at 25-30° C. and the solvent is removed by evaporation under reduced pressure. The resulting coupled product is stirred with an excess of a mixture of 0.1 N NaOH and acetonitrile for 18 hours to give target compounds 1 or 2. […] The precipitate can be recovered by filtration, washed and dried.
For the preparation of compound 3 (Scheme 3), the solution of the mixed anhydride 6 is reacted with an excess amount of the diester of 3-hydroxyglutamic acid such as dimethyl-3-hydroxyglutamate. Diethyl, dibenzyl or di-t-butyl-3-hydroxyglutamate may be substituted for the dimethyl derivative. Dimethyl-3-hydroxyglutamate may be added to the solution of the mixed anhydrie as the hydrochloride followed by the addition of an equivalent or excess amount of the acid acceptor such as triethylamine. Alternatively, dimethyl-3-hydroxyglutamate hydrochloride may be dissolved in a suitable solvent such as DMF, neutralized with an equivalent amount of the acid acceptor such as triethylamine or N-methylmorpholine and then added to the mixed anhydride solution. The reaction mixture is then stirred for 18-24 hours at 25-30° C. and the solvent is removed by rotary evaporation under reduced pressure The resulting product is stirred with an excess of a 3:1 mixture of 0.1 N NaOH:acetonitrile for 10-18 hours to give target compound 3. […]

Data set [11] concerns antitumor activity. Conditions: result in words; cited from earlier work.
Data set [12] has as its system mammalian cells. Conditions: versus MTX; cited from earlier work.
The conditions of data set [13]: cited from earlier work. This is another data set of the same source.
For data set [14] the following is noted: cited from earlier work. This is another data set of the same source.
Setting [15] is: Homo sapiens; CCRF-CEM; value marked *: corrected for the presence of the d-enantiomer of methyleneglutamate; duplicate experiments; read-out: I50, inhibition of tumor cell growth, CCRF-CEM human leukemia (*).
Setting [16] is: Homo sapiens; CCRF-CEM; values correspond to duplicate experiments; no asterisk; read-out: I50, inhibition of tumor cell growth, CCRF-CEM human leukemia.
The mark [17] stands for this setting: human leukemia cells; on a comparative basis.

Turning to `Nc1nc(N)c2nc(CCc3ccc(C(=O)N[C@@H](CCC(=O)O)C(=O)O)cc3)cnc2n1` [10-Deazaaminopterin, reference compound], in data set [1], the “metabolism to polyglutamyl derivatives” value was “undergo polyglutamylation”. The Substrate activity in data set [2] was 1020.
Take `C#CCN(Cc1ccc2nc(N)[nH]c(=O)c2c1)c1ccc(C(=O)N[C@@H](CCC(=O)O)C(=O)O)cc1` [CB 3717, N^10-propargyl-5,8-dideazafolic acid]: in data set [3], the “conversion to polyglutamyl derivative in normal murine tissues” value is “converted to its polyglutamyl derivatives in normal murine tissues”.
For the compound `C=C(CC(NC(=O)c1ccc(CCc2cnc3nc(N)nc(N)c3n2)cc1)C(=O)O)C(=O)O` (stereo not shown) [Compound 1, 4-amino-4-deoxy-10-deazapteroyl-.tau.-methyleneglutamic acid], the IC50 in data set [4] was 4 nM; in [5] it was 9 nM; in data set [6] it was 30 nM; in [7] it was 7 nM; in [8] (setting [15]) it was 5 nM; in [8] (setting [16]), 4 nM. Further, the “transport to H35 hepatoma cells compared to methotrexate” value in data set [4] is recorded as “transported more efficiently to H35 hepatoma cells than methotrexate”. Further, the “transport to tumor cells compared to methotrexate” value in data set [4] was “three to five times more efficiently than methotrexate”. In data set [8] (setting [17]), the “inhibition of growth of human leukemia cells compared to methotrexate” value was “twice as powerful as methotrexate”. The “antitumor activity in three tumor models” value in [9] was “excellent antitumor activity”. Moreover, the Substrate activity in data set [2] was 5 and 3. Also, the “substrate for folylpolyglutamate synthetase” value in data set [2] is listed as “not substrates of CCRF-CEM human leukemia cell folylpolyglutamate synthetase; also recorded: None of the new antifolates (1, 2 or 3) is a substrate for folylpolyglutamate synthetase”. In data set [10], the solubility in alkali result is given as “soluble in alkali”.
Consider `C=C(CC(NC(=O)c1ccc(C(CC)Cc2cnc3nc(N)nc(N)c3n2)cc1)C(=O)O)C(=O)O` (stereo not shown) [Compound 2, 4-amino-4-deoxy-10-ethyl-10-deazapteroyl-.tau.-methyleneglutamic acid], for which the IC50 in data set [4] worked out at 3 nM; in [5], 11 nM; in [6], 32 nM; in [7], 9 nM; in [8] (setting [15]), 6 nM; in data set [8] (setting [16]), 4 nM. For the same compound, the “transport to H35 hepatoma cells compared to methotrexate” value in [4] is on record as “transported more efficiently to H35 hepatoma cells than methotrexate”. Moreover, the “transport to tumor cells compared to methotrexate” value in data set [4] was “three to five times more efficiently than methotrexate”. The “inhibition of growth of human leukemia cells compared to methotrexate” value in data set [8] (setting [17]) is listed as “twice as powerful as methotrexate”. For the same compound, in data set [9], the “antitumor activity in three tumor models” value is recorded as “excellent antitumor activity”. Moreover, the Substrate activity in data set [2] was 3 and 6. In addition, the “substrate for folylpolyglutamate synthetase” value in [2] is listed as “not substrates of CCRF-CEM human leukemia cell folylpolyglutamate synthetase; also recorded: None of the new antifolates (1, 2 or 3) is a substrate for folylpolyglutamate synthetase”. Further, the solubility in alkali entry in data set [10] is recorded as “soluble in alkali”.
`Nc1nc(N)c2nc(CCc3ccc(C(=O)NC(C(=O)O)C(O)CC(=O)O)cc3)cnc2n1` (stereo not shown) [Compound 3, 4-amino-4-deoxy-10-deazapteroyl-3-hydroxyglutamic acid]: the results for the IC50 in data set [5], in [6] and in [7] were 28 nM, 33 nM and 15 nM, respectively. Besides, in data set [9], the “antitumor activity in three tumor models” value is “excellent antitumor activity”. The Substrate activity in data set [2] was 8 and 10. Moreover, in data set [2], the “substrate for folylpolyglutamate synthetase” value is “not substrates of CCRF-CEM human leukemia cell folylpolyglutamate synthetase; also recorded: None of the new antifolates (1, 2 or 3) is a substrate for folylpolyglutamate synthetase”. The solubility in alkali entry in data set [10] is on record as “soluble in alkali”.
On to `CCC(Cc1cnc2nc(N)nc(N)c2n1)c1ccc(C(=O)N[C@@H](CCC(=O)O)C(=O)O)cc1` (stereo partly shown) [Compound 10-EDAM, 10-ethyl-10-deazaaminopterin], for which the “metabolism to polyglutamyl derivatives” value is “metabolized to their poly-.tau.-glutamyl derivatives” in [1] and “undergo polyglutamylation” in [1] (listed as 10-ethyl derivative). In data set [11], the antitumor activity entry was “wide spectrum of antitumor activity”. Further, in data set [12], the “transport to mammalian cells compared to MTX” value was “enhanced transport to mammalian cells compared to MTX”.
Turning to `CN(Cc1cnc2nc(N)nc(N)c2n1)c1ccc(C(=O)N[C@@H](CCC(=O)O)C(=O)O)cc1` [Methotrexate, reference compound], the IC50 in [4] was 18 nM; in data set [5] it was 10 nM; in data set [7] it was 6 nM; in data set [8] (CCRF-CEM; values correspond to duplicate experiments; no asterisk; read-out: I50, inhibition of tumor cell growth, CCRF-CEM human leukemia), 8 nM; in data set [8] (Homo sapiens, CCRF-CEM; values correspond to duplicate experiments; no asterisk; read-out: I50, inhibition of tumor cell growth, CCRF-CEM human leukemia), 12 nM. Also, the results for the “metabolism to polyglutamyl derivatives” value in data set [1] and in data set [1] (listed as MTX) were “undergo polyglutamylation” and “metabolized to their poly-.tau.-glutamyl derivatives”, respectively. Besides, the “metabolism to poly-glutamates in human tissues” value in [13] is given as “metabolism of the well known anticancer drug methotrexate to its poly-.tau.-glutamates in human tissues”. Also, the “formation of poly-glutamyl metabolites in rodent tissues” value in data set [14] is “formation of these metabolites in rodent tissues”.
